Measured values from patent US6121252A, “Phosphinic acid derivatives” (priority 1998, dated 2000).
Blank lines part the entries; values can stand above or below the compound they belong to. Peptide text beside a SMILES is read from it.

Legend:
LNCaP tumors = test: In vivo LNCaP tumor model, subcutaneous Compounds 16, 17, 18; set-up: species or system ncr nude male mice; details: for tumor response (in words): 1 and 3 mg/kg s.c.
Protocol: Ncr nude male mice, age 5 to 6 weeks, were injected in the right flank with 5×10^6 LNCaP cells in Matrigel™ (0.1 ml total injection volume). Two weeks following cell injection, daily s.c. injections of Compound 16, Compound 17, and Compound 18 were initiated at the following doses: 1 and 3 mg/kg. Controls received 50 mM HEPES s.c. daily. Once tumors were palpable they were measured twice a week.
Response to treatment was monitored in two ways. First, mean tumor volume for each group was presented as tumor:control ratio (% T/C) and these values were compared at one point in time. Second, tumor volume versus time was monitored.

NAALADase = target: T1, NAALADase (Rattus norvegicus, UniProt P70627); test: In vitro inhibition of NAALADase activity; assay type: biochemical
T1 construct: synaptosomal protein; from tissue; host or cells: synaptosomes (brain tissue)
T1 sequence (P70627 whole entry): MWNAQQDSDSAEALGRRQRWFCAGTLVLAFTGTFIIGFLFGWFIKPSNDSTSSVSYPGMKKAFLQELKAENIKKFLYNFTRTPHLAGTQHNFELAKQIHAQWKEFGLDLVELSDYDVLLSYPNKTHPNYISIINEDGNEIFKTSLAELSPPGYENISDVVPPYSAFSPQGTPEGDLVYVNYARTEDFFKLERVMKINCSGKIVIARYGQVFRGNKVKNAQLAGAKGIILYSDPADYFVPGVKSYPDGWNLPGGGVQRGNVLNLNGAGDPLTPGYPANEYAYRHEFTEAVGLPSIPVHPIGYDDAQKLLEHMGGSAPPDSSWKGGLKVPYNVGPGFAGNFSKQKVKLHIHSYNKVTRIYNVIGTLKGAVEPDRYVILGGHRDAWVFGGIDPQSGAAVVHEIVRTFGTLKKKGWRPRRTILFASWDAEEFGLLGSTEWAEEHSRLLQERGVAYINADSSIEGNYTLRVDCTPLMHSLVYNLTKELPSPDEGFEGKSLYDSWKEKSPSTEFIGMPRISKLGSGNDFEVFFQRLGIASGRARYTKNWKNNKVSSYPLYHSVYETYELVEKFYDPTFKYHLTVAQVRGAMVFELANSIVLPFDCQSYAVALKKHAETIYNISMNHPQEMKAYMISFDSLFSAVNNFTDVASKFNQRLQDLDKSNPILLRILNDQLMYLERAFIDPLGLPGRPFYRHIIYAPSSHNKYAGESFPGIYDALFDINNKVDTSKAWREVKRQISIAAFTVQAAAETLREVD
Source text: "Inhibition", in the context of enzymes, refers to reversible enzyme inhibition such as competitive, uncompetitive and non-competitive inhibition. Competitive, uncompetitive and non-competitive inhibition can be distinguished by the effects of an inhibitor on the reaction kinetics of an enzyme. […] The affinity between the inhibitor and the enzyme may be measured by the inhibitor constant, Ki, which is defined as: [formula] wherein [E] is the concentration of the enzyme, [I] is the concentration of the inhibitor, and [EI] is the concentration of the enzyme-inhibitor complex formed by the reaction of the enzyme with the inhibitor. Unless otherwise specified, Ki as used herein refers to the affinity between the inventive compounds and NAALADase.
Various compounds of formula I were tested for in vitro inhibition of NAALADase activity.
Substrate and product were resolved by anion-exchange liquid chromatography. […] Quisqualate (100 μM) was included in parallel assay tubes to confirm the specificity of the measurements.

cortical cell cultures [1] = test: In vitro ischemia assay (KCN/2-DG) in cortical cell cultures; assay type: cell-based, rat; details: Rattus norvegicus, 1 h, read-out: EC50 (50% reduction in glutamate toxicity following an ischemic insult); KCN/2-DG insult, compound during insult and one hour thereafter
dopaminergic neurons = test: Parkinson's Disease model: MPTP lesioned mice; assay type: in vivo, CD1 mice
Protocol: To examine the effect of NAALADase inhibitors on Parkinson's Disease in vivo, MPTP lesioned mice were treated with 2-(phosphonomethyl)pentanedioicacid or a vehicle.
MPTP lesioning of dopaminergic neurons in mice was used as an animal model of Parkinson's Disease, as described by Steiner, Proc. Natl. Acad. Sci., Vol. 94, pp. 2019-2024 (March 1997). In brief, four week old male CD1 white mice were dosed IP with 30 mg/kg of MPTP for 5 days. […] At 18 days following MPTP treatment, the mice were sacrificed and their brains were removed and sectioned. Immunostaining was performed on saggital and coronal brain sections using anti-tyrosine hydroxylase (TH) antibodies to quantitate survival and recovery of dopaminergic neurons.

cortical cell cultures [2] = test: In vitro toxicity of NAAG in cortical cell cultures; assay type: cell-based; details: Rattus norvegicus, 20 min
Protocol: Experiments are performed after 21 days in cultures.
At the end of exposure, the cells are washed once with HEPES buffered saline solution and then replaced with serum free modified Earle's basal medium. The cultures are then returned to the CO2 incubator for 24 hour recovery.
This control measurement is subtracted from each experimental point.

[3] = system: spinal cord organotypic cultures; test: ALS model: ChAT activity of spinal cord organotypic cultures with THA; assay type: cell-based, rat; details: Rattus norvegicus, THA alone, 100 μM
Protocol: Organotypic cultures were prepared from lumbar spinal cord of 8 day old rats, as described by Rothstein et al., J. Neurochem., Vol. 65, No. 2 (1995), and Rothstein et al., Proc. Natl. Acad. Sci. USA, Vol. 90, pp. 6591-6595 (July 1993). In brief, lumbar spinal cords were removed and sliced into […]-thick-dorsal-ventral sections, and five slices were placed on Millipore CM semipermeable 30-mm-diameter membrane inserts. The inserts were placed on 1 ml of culture medium in 35-mm-diameter culture wells. Culture medium consisted of 50% minimal essential medium and phosphate-free HEPES (25 mM), 25% heat-inactivated horse serum, and 25 Hanks' balanced salt solution (GIBCO) supplemented with D-glucose (25.6 mg/ml) and glutamine (2 mM), at a final pH of 7.2. Antibiotic and antifungal agents were not used. Cultures were incubated at 37° C. in 5% CO2 containing humidified environment (Forma Scientific). Culture medium, along with any added pharmacological agents, was changed twice weekly.
Drugs were incubated for an additional 13 to 20 days with the 100 μM THA. At the end of this period, cultures were collected assayed for ChAT activity as described below.
To determine choline acetyltransferase (CHAT) activity, the spinal cord tissues in each dish (five slices) were pooled and frozen (-75° C.) until assay. CHAT activity was measured radiometrically by described methods using [^3 H]acetyl-CoA (Amersham; Fonnum, 1975). Protein content of tissue homogenate was determined by a Coomassi Protein Assay kit (Pierce, Rockford, Ill.).

Compound: O=C(O)CCC(CP(=O)(O)Cc1c(F)c(F)c(F)c(F)c1F)C(=O)O (stereo not shown) [Compound 16, 2-[[(pentafluorobenzyl)hydroxyphosphinyl]methyl]pentanedioic acid]
tumor size, % of control tumors (LNCaP tumors; 1 mg/kg s.c.): 78 % of controls | tumor size, % of control tumors (LNCaP tumors; 3 mg/kg s.c.): 41.4 % of controls

Ki (NAALADase): 2 nM
Compound: CC(C)(C)c1ccc(NCP(=O)(O)CC(CCC(=O)O)C(=O)O)cc1 (stereo not shown) [drawing 32]

Ki (NAALADase): 2000 nM
Compound: O=C(O)CCC(CP(=O)(O)C(NC(=O)O)c1ccccc1)C(=O)O (stereo not shown)

Compound: O=C(O)CCC(CP(=O)(O)CNCc1ccccc1)C(=O)O (stereo not shown)
EC50 (cortical cell cultures [1]): 0.9 nM

Ki (NAALADase): 9 nM
Compound: O=C(O)CCC(CP(=O)(O)CNc1ccc(F)cc1)C(=O)O (stereo not shown) [drawing 29]

Compound: Cc1ccc(NCP(=O)(O)CC(CCC(=O)O)C(=O)O)cc1 (stereo not shown) [drawing 41]
EC50 (cortical cell cultures [1]): 11.4 nM

Compound: CN1CC=C(c2ccccc2)CC1 [MPTP]
loss of functional dopaminergic terminals (dopaminergic neurons; MPTP and vehicle vs non-lesioned mice): approximately 68% | Percent Striatal TH Innervation Density (dopaminergic neurons; MPTP/vehicle, mean ± SEM): 7.82 ± 0.68%

Ki (NAALADase): 34.5 nM
Compound: O=C(O)CCC(CP(=O)(O)CN1C(=O)c2ccccc2C1=O)C(=O)O (stereo not shown)

Ki (NAALADase): 5.2 nM
Compound: Cc1ccc(NCP(=O)(O)CC(CCC(=O)O)C(=O)O)cc1 (stereo not shown) [drawing 31]

Compound: 2-[[[hydroxy(pyridyl)methyl]hydroxyphosphinyl]methyl]pentanedioic acid [Compound 18]
tumor size, % of control tumors (LNCaP tumors; 1 mg/kg s.c.): 54 % of controls | tumor size, % of control tumors (LNCaP tumors; 3 mg/kg s.c.): 58 % of controls | tumor response (in words) (LNCaP tumors): responded better

Compound: O=C(O)CCC(CP(=O)(O)CNc1ccc(F)cc1)C(=O)O (stereo not shown) [drawing 39]
EC50 (cortical cell cultures [1]): 3.1 nM

Compound: CC(=O)N[C@@H](CC(=O)O)C(=O)N[C@@H](CCC(=O)O)C(=O)O [NAAG, N-acetyl-aspartyl-glutamate] (Ac-Asp-Glu-OH)
cytotoxicity at 3 µM (cortical cell cultures [2]): 3.51% | cytotoxicity at 10 µM (cortical cell cultures [2]): 4.3 ± 3.12% | cytotoxicity at 30 µM (cortical cell cultures [2]): 11.4 ± 6.17% | cytotoxicity at 100 µM (cortical cell cultures [2]): 12.7 ± 5.5% | cytotoxicity at 300 µM (cortical cell cultures [2]): 13.5 ± 4% | cytotoxicity at 1000 µM (cortical cell cultures [2]): 21.5 ± 4.2% | cytotoxicity at 3000 µM (cortical cell cultures [2]): 45.1 ± 4.96%

Compound: O=C(O)CCC(CP(=O)(O)Cc1cccc(C(F)(F)F)c1)C(=O)O (stereo not shown) [Compound 17, 2-[[(3-trifluoromethylbenzyl)hydroxyphosphinyl]methyl]pentanedioic acid]
tumor size, % of control tumors (LNCaP tumors; 1 mg/kg s.c.): 74.1 % of controls | tumor size, % of control tumors (LNCaP tumors; 3 mg/kg s.c.): 82 % of controls | tumor response (in words) (LNCaP tumors): responded minimally

Ki (NAALADase): 90 nM
Compound: O=C(O)CCC(CP(=O)(O)CNS(=O)(=O)c1ccccc1)C(=O)O (stereo not shown)

Compound: O=C(O)CCC(CP(=O)(O)C(NCc1ccccc1)c1ccccc1)C(=O)O (stereo not shown)
EC50 (cortical cell cultures [1]): 1 nM

Compound: N[C@H](C(=O)O)[C@H](O)C(=O)O (relative stereo) [THA, threohydroxyaspartate]
activity at 100 µM [3]: 36 ± 12.1%

Ki (NAALADase): 2.5 nM
Compound: COc1ccc(NCP(=O)(O)CC(CCC(=O)O)C(=O)O)cc1 (stereo not shown) [drawing 30]

Compound: CC(C)(C)c1ccc(NCP(=O)(O)CC(CCC(=O)O)C(=O)O)cc1 (stereo not shown) [drawing 42]
EC50 (cortical cell cultures [1]): 34.6 nM

Compound: COc1ccc(NCP(=O)(O)CC(CCC(=O)O)C(=O)O)cc1 (stereo not shown) [drawing 40]
EC50 (cortical cell cultures [1]): 9.5 nM
